# Source: the supplement of paper PMC9663587
# How the values were obtained:
# THZ531 = compound: CN(C)C/C=C/C(=O)Nc1ccc(C(=O)N2CCC[C@@H](Nc3ncc(Cl)c(-c4c[nH]c5ccccc45)n3)C2)cc1 [THZ531]; assay: increase in dead-cell fraction, 72 h; higher = more death;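 further: breast cancer cell lines in 384-well plates, stained with Hoechst plus LIVE/DEAD far red dye and imaged, cells above an LDR intensity threshold counted dead, Hoechst-negative corpses included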
# Neratinib/HKI272 = compound: CCOc1cc2ncc(C#N)c(Nc3ccc(OCc4ccccn4)c(Cl)c3)c2cc1NC(=O)/C=C/CN(C)C [Neratinib/HKI272]; assay: as above
# [1] = compound: CCc1cnn2c(NCc3ccc[n+]([O-])c3)cc(N3CCCC[C@H]3CCO)nc12; assay: as above
# THZ1 = compound: CN(C)C/C=C/C(=O)Nc1ccc(C(=O)Nc2cccc(Nc3ncc(Cl)c(-c4c[nH]c5ccccc45)n3)c2)cc1 [THZ1]; assay: as above
# LEE011/Ribociclib = compound: CN(C)C(=O)c1cc2cnc(Nc3ccc(N4CCNCC4)cn3)nc2n1C1CCCC1 [LEE011/Ribociclib]; assay: as above
# BSJ-03-123 = compound: CC(=O)c1c(C)c2cnc(Nc3ccc(N4CCN(CCOCCOCCOCCNC(=O)COc5cccc6c5C(=O)N(C5CCC(=O)NC5=O)C6=O)CC4)cn3)nc2n(C2CCCC2)c1=O [BSJ-03-123]; assay: as above
# Flavopiridol = compound: CN1CC[C@H](c2c(O)cc(O)c3c(=O)cc(-c4ccccc4Cl)oc23)[C@H](O)C1 [Flavopiridol]; assay: as above
# [2] = compound: CC(=O)c1c(C)c2cnc(Nc3ccc(N4CCNCC4)cn3)nc2n(C2CCCC2)c1=O; assay: as above
# YKL-5-124 = compound: C=CC(=O)Nc1ccc(C(=O)Nc2[nH]nc3c2CN(C(=O)N[C@H](CN(C)C)c2ccccc2)C3(C)C)cc1 [YKL-5-124]; assay: as above
# [3] = compound: CCN1CCN(Cc2ccc(Nc3ncc(F)c(-c4cc(F)c5nc(C)n(C(C)C)c5c4)n3)nc2)CC1; assay: as above
# Ceritinib/LDK378 = compound: Cc1cc(Nc2ncc(Cl)c(Nc3ccccc3S(=O)(=O)C(C)C)n2)c(OC(C)C)cc1C1CCNCC1 [Ceritinib/LDK378]
# Saracatinib/AZD0530 = compound: CN1CCN(CCOc2cc(OC3CCOCC3)c3c(Nc4c(Cl)ccc5c4OCO5)ncnc3c2)CC1 [Saracatinib/AZD0530]
# Luminespib/NVP-AUY922 = compound: CCNC(=O)c1noc(-c2cc(C(C)C)c(O)cc2O)c1-c1ccc(CN2CCOCC2)cc1 [Luminespib/NVP-AUY922]
# BSJ-01-175 = compound: CN(C)C/C=C/C(=O)Nc1ccc(O[C@@H]2CCC[C@@H](Nc3ncc(Cl)c(-c4c[nH]c5ccccc45)n3)C2)cc1 [BSJ-01-175]
# [4] = compound: CCCCOc1c(C(=O)c2c(F)cc(C)cc2F)c[nH]c2nncc1-2
# 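Wherever GR50, 72 h is given: breast cancer and non-malignant breast epithelial cell lines, Deep Dye Drop or Dye Drop imaging, nine half-log doses, GR normalized to time-zero plates and DMSO-only controls.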
cell line,measurement,setting,value
MDAMB453,increase in dead-cell fraction,THZ531; 0.0001 µM,0.0012
same,increase in dead-cell fraction,THZ531; 0.0003162 µM,0.0037
same,increase in dead-cell fraction,THZ531; 0.001 µM,0.0069
same,increase in dead-cell fraction,THZ531; 0.003162 µM,0.0027
same,increase in dead-cell fraction,THZ531; 0.01 µM,0.0057
same,increase in dead-cell fraction,THZ531; 0.03162 µM,0.0394
same,increase in dead-cell fraction,THZ531; 0.1 µM,0.16
same,increase in dead-cell fraction,THZ531; 0.3162 µM,0.187
same,increase in dead-cell fraction,THZ531; 1 µM,0.157
same,increase in dead-cell fraction,Neratinib/HKI272; 0.0003162 µM,0.0316
same,increase in dead-cell fraction,Neratinib/HKI272; 0.001 µM,0.0419
same,increase in dead-cell fraction,Neratinib/HKI272; 0.003162 µM,0.0613
same,increase in dead-cell fraction,Neratinib/HKI272; 0.01 µM,0.0661
same,increase in dead-cell fraction,Neratinib/HKI272; 0.03162 µM,0.119
same,increase in dead-cell fraction,Neratinib/HKI272; 0.1 µM,0.106
same,increase in dead-cell fraction,Neratinib/HKI272; 0.3162 µM,0.177
same,increase in dead-cell fraction,Neratinib/HKI272; 1 µM,0.212
same,increase in dead-cell fraction,Neratinib/HKI272; 3.162 µM,0.348
same,increase in dead-cell fraction,[1]; 0.0001 µM,0.0187
same,increase in dead-cell fraction,[1]; 0.0003162 µM,-0.0038
same,increase in dead-cell fraction,[1]; 0.001 µM,-0.0082
same,increase in dead-cell fraction,[1]; 0.003162 µM,-0.004
same,increase in dead-cell fraction,[1]; 0.01 µM,0.0474
same,increase in dead-cell fraction,[1]; 0.03162 µM,0.251
same,increase in dead-cell fraction,[1]; 0.1 µM,0.309
same,increase in dead-cell fraction,[1]; 0.3162 µM,0.286
same,increase in dead-cell fraction,[1]; 1 µM,0.318
same,increase in dead-cell fraction,THZ1; 0.0001 µM,0.0006
same,increase in dead-cell fraction,THZ1; 0.0003162 µM,-0.0024
same,increase in dead-cell fraction,THZ1; 0.001 µM,-0.0042
same,increase in dead-cell fraction,THZ1; 0.003162 µM,0.0021
same,increase in dead-cell fraction,THZ1; 0.01 µM,0.0161
same,increase in dead-cell fraction,THZ1; 0.03162 µM,0.0525
same,increase in dead-cell fraction,THZ1; 0.1 µM,0.133
same,increase in dead-cell fraction,THZ1; 0.3162 µM,0.101
same,increase in dead-cell fraction,THZ1; 1 µM,0.122
same,increase in dead-cell fraction,LEE011/Ribociclib; 0.001 µM,0.0026
same,increase in dead-cell fraction,LEE011/Ribociclib; 0.003162 µM,0.0128
same,increase in dead-cell fraction,LEE011/Ribociclib; 0.01 µM,0.0136
same,increase in dead-cell fraction,LEE011/Ribociclib; 0.03162 µM,0.016
same,increase in dead-cell fraction,LEE011/Ribociclib; 0.1 µM,0.025
same,increase in dead-cell fraction,LEE011/Ribociclib; 0.3162 µM,0.0275
same,increase in dead-cell fraction,LEE011/Ribociclib; 1 µM,0.0212
same,increase in dead-cell fraction,LEE011/Ribociclib; 3.162 µM,0.0344
same,increase in dead-cell fraction,LEE011/Ribociclib; 10 µM,0.05
same,increase in dead-cell fraction,BSJ-03-123; 0.001 µM,-0.0008
same,increase in dead-cell fraction,BSJ-03-123; 0.003162 µM,-0.0002
same,increase in dead-cell fraction,BSJ-03-123; 0.01 µM,-0.0018
same,increase in dead-cell fraction,BSJ-03-123; 0.03162 µM,0.0081
same,increase in dead-cell fraction,BSJ-03-123; 0.1 µM,0.0016
same,increase in dead-cell fraction,BSJ-03-123; 0.3162 µM,0.0031
same,increase in dead-cell fraction,BSJ-03-123; 1 µM,0.0138
same,increase in dead-cell fraction,BSJ-03-123; 3.162 µM,0.007
same,increase in dead-cell fraction,BSJ-03-123; 10 µM,0.0618
same,increase in dead-cell fraction,Flavopiridol; 0.0001 µM,-0.0017
same,increase in dead-cell fraction,Flavopiridol; 0.0003162 µM,-0.0022
same,increase in dead-cell fraction,Flavopiridol; 0.001 µM,-0.0038
same,increase in dead-cell fraction,Flavopiridol; 0.003162 µM,-0.0016
same,increase in dead-cell fraction,Flavopiridol; 0.01 µM,-0.0001
same,increase in dead-cell fraction,Flavopiridol; 0.03162 µM,-0.0034
same,increase in dead-cell fraction,Flavopiridol; 0.1 µM,0.0018
same,increase in dead-cell fraction,Flavopiridol; 0.3162 µM,0.0317
same,increase in dead-cell fraction,Flavopiridol; 1 µM,0.168
same,increase in dead-cell fraction,[2]; 0.0003162 µM,0.0265
same,increase in dead-cell fraction,[2]; 0.001 µM,0.0374
same,increase in dead-cell fraction,[2]; 0.003162 µM,0.016
same,increase in dead-cell fraction,[2]; 0.01 µM,0.0502
same,increase in dead-cell fraction,[2]; 0.03162 µM,0.0578
same,increase in dead-cell fraction,[2]; 0.1 µM,0.115
same,increase in dead-cell fraction,[2]; 0.3162 µM,0.124
same,increase in dead-cell fraction,[2]; 1 µM,0.123
same,increase in dead-cell fraction,[2]; 3.162 µM,0.117
same,increase in dead-cell fraction,YKL-5-124; 0.001 µM,0.007
same,increase in dead-cell fraction,YKL-5-124; 0.003162 µM,0.013
same,increase in dead-cell fraction,YKL-5-124; 0.01 µM,0.0243
same,increase in dead-cell fraction,YKL-5-124; 0.03162 µM,0.0344
same,increase in dead-cell fraction,YKL-5-124; 0.1 µM,0.0489
same,increase in dead-cell fraction,YKL-5-124; 0.3162 µM,0.033
same,increase in dead-cell fraction,YKL-5-124; 1 µM,0.0346
same,increase in dead-cell fraction,YKL-5-124; 3.162 µM,0.0296
same,increase in dead-cell fraction,YKL-5-124; 10 µM,0.275
same,increase in dead-cell fraction,[3]; 0.001 µM,0.0151
same,increase in dead-cell fraction,[3]; 0.003162 µM,0.0243
same,increase in dead-cell fraction,[3]; 0.01 µM,0.117
same,increase in dead-cell fraction,[3]; 0.03162 µM,0.134
same,increase in dead-cell fraction,[3]; 0.1 µM,0.124
same,increase in dead-cell fraction,[3]; 0.3162 µM,0.104
same,increase in dead-cell fraction,[3]; 1 µM,0.15
same,increase in dead-cell fraction,[3]; 3.162 µM,0.147
same,increase in dead-cell fraction,[3]; 10 µM,0.626
same,"GR50, 72 h",Ceritinib/LDK378,0.37 µM
same,"GR50, 72 h",Saracatinib/AZD0530,8.37 µM
same,"GR50, 72 h",Luminespib/NVP-AUY922,0.0033 µM
same,"GR50, 72 h",BSJ-01-175,0.00336 µM
same,"GR50, 72 h",[4],0.811 µM
